For this assay, the system named is SARS-CoV-2 pseudovirus (lentiviral vector, spike D614G). It counts as cell-based. The note with it: read-out: IC50 pseudovirus entry (luciferase output).

By IC50 is commonly meant the concentration needed to halve the response being measured. With `COc1cc(NCc2ccc3nc(N)nc(N)c3c2C)cc(OC)c1OC` [Trimetrexate], the IC50 amounted to 0.225 µM.
Under `C#CCC(Cc1cnc2nc(N)nc(N)c2n1)c1ccc(C(=O)N[C@@H](CCC(=O)O)C(=O)O)cc1` (some centres unmarked) [Pralatrexate] stands 0.0121 µM.

Values taken from publication PMC10221469 (Viruses, 2023).
